Test results reported in article PMC7311396, “Ultra-large chemical libraries for the discovery of high-affinity peptide binders” (Nature Communications, 2020).
Read-outs that look alike come from different tables or passages of the source. Non-standard residues stand in square brackets, D forms with d. Residues, ends and D or L forms follow the SMILES beside them. *: point of attachment. FITC = O=C1OC2(c3ccc(O)cc3Oc3cc(O)ccc32)c2ccc(NC(=S)*)cc21; Phe(4-NO2) = N[C@@H](Cc1ccc([N+](=O)[O-])cc1)C(=O)O; Ala(4-thiazolyl) = N[C@@H](Cc1cscn1)C(=O)O; β3hT = C[C@@H](O)[C@H](N)CC(=O)O; pS = N[C@@H](COP(=O)(O)O)C(=O)O; Aad = N[C@@H](CCCC(=O)O)C(=O)O; Cha = N[C@@H](CC1CCCCC1)C(=O)O; β3hS = N[C@@H](CO)CC(=O)O; Orn = NCCC[C@H](N)C(=O)O; Nva = CCC[C@H](N)C(=O)O; βAla = NCCC(=O)O

How the values were obtained:
anti-HA mAb clone 12ca5 = experiment: Competition fluorescence polarization of HA epitope and analogues; format: binding; conditions: for effect of mutation on affinity towards 12ca5: competition FP of HA epitope Ala scan mutants; for IC50: competition FP, 100 nM 12ca5, 28 nM YPYDVPDYAK(FITC)-CONH2, 1 mg/mL BSA, 0.02% Tween 20, 1x PBS, RT, read after 1 h; for Kd: from competition FP, 100 nM 12ca5, 28 nM FITC tracer
Protocol: Competition fluorescence polarization of HA epitope and analogues:
Solutions of unlabeled peptides (~1 mg/mL each; Supplementary Table 1) in 1x PBS was prepared in the presence of 100 nM 12ca5, 1 mg/mL BSA, 0.02% Tween 20 (120 μL). Fluorescent competitor was added (YPYDVPDYAK(FITC)α-CONH2; 28 nM).
The resulting solution was diluted serially (20 μL) into 100 nM 12ca5, 28 nM […]
YPYDVPDYAK(FITC)α-CONH2, 1 mg/mL BSA, 0.02% Tween 20 in 1x PBS (80 μL; […]
5-fold dilutions). The resulting solutions were transferred to a 96 well plate (Greiner Bio- […]
(RT), and read after 1 h on a Tecan Infinite M1000 plate reader (470 nm excitation; 517 nm detection; 5 nm bandwidth). The concentration of fluorescent […] was determined based on absorbance at 490 nm, using ε = 76,900 M-1cm-1.
Competition fluorescence polarization of HA epitope Ala scan mutants:
Competition fluorescence polarization experiments were carried out as described in Competition fluorescence polarization of HA epitope and analogues.

14-3-3γ [1] = target: T1, 14-3-3γ (Homo sapiens, UniProt P61981); experiment: Direct fluorescence anisotropy binding assay
T1 construct: Full-length human 14-3-3γ was expressed by transforming pROEX HTb plasmid; His6; made in house; host or cells: Rosetta(DE3) Escherichia coli
T1 sequence (P61981 1-247): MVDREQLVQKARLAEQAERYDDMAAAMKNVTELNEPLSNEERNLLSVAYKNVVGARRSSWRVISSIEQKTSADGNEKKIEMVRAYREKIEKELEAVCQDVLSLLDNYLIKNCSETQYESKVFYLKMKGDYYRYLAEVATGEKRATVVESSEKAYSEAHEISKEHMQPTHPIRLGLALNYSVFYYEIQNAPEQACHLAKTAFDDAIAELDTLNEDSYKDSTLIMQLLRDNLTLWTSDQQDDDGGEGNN
Protocol: (§1) All direct fluorescence anisotropy affinity measurements were conducted in FA buffer (10 mM HEPES pH 7.4, 150 mM NaCl, 0.1% (v/v) Tween 20, 0.1% (w/v) BSA). A 1:1 dilution series of 14-3-3γ (starting at 100 μM) was performed in polystyrene non-binding low-volume Corning Black Round Bottom 384-well plates (Corning 4514) containing a fixed concentration FITC-labeled peptide (10 nM or 50 nM). Measurements were performed at ambient temperature using a Tecan Infinite F500 plate reader with the following parameters: λex: 485 (20) nm; λem: 535 (25) nm; mirror: Dichroic 510; flashes: 20; integration time: 50 μs; settle time; 0 μs; gain: manual 90; Z-position: calculated from well. The G-factor was set at 35 mP based on wells containing only the FITC-labeled peptide.
Fluorescence anisotropy binding assay of 14-3-3γ-binding peptides:
as §1, with “All” for “All direct”, “BSA). During each assay a” for “BSA). A”, “series” for “series of 14-3-3γ”, “μM) of 14-3-3γ” for “μM)”, “was made in wells containing a fixed concentration FITC-labeled peptide (10 nM or 50 nM). This was done” for “was performed”, “(Corning 4514).” for “(Corning 4514) containing a fixed concentration FITC-labeled peptide (10 nM or 50 nM).”

14-3-3γ [2] = target: T1, 14-3-3γ; experiment: Fluorescence anisotropy competition assay with FITC-labeled BiExoS; format: binding
Protocol: All fluorescence anisotropy competition experiments were conducted in FA buffer (10 mM HEPES pH 7.4, 150 mM NaCl, 0.1% (v/v) Tween-20, 0.1% (w/v) BSA). A 1:1 dilution series of unlabeled peptides (starting at 10 μM) were performed in wells containing a fixed concentration FITC-labeled biExoS (10 nM) and 14-3-3γ (20 nM). Measurements were performed at ambient temperature using a Tecan Infinite F500 plate reader with the following parameters: λex = 485 (20) nm; λem = 535 (25) nm, mirror: Dichroic = 510, flashes: 20; integration time: 50 μs; settle time: 0 μs; gain: manual 90; and Z-position: calculated from well. The G-factor was set at 35 mP based on wells containing only the FITC-labeled peptide.
Competition fluorescence anisotropy binding assay of 14-3-3γ-binding peptides:
All fluorescence anisotropy affinity measurements were conducted in FA buffer (10 mM HEPES pH 7.4, 150 mM NaCl, 0.1% (v/v) Tween-20, 0.1% (w/v) BSA). During each assay a 1:1 dilution series (starting at 10 μM) of unlabeled peptides were made in wells containing a fixed concentration FITC-labeled biExoS (10 nM; FITC-O1Pen- […]
[…](GGSGGGGSGG)[…]-CONH2)5, and 14-3-3γ (20 nM).
This is done in polystyrene non -binding low-volume Corning Black Round Bottom 384 - well plates (Corning 4514). Measurements were performed at ambient temperature using a Tecan Infinite F500 plate reader with the following parameters : λex = 485 (20) nm; λem = 535 (25) nm, mirror: Dichroic = 510, flashes: 20; integration time: 50 μs; settle time: 0 μs; gain: manual 90; and Z-position: calculated from well. The G-factor was set at 35 mP based on wells containing only the FITC-labeled peptide.

14-3-3σΔc = target: T2, 14-3-3σΔc (Homo sapiens, UniProt P31947); experiment: Direct fluorescence anisotropy binding validation with 14-3-3σΔc; conditions: 14-3-3σ
T2 construct: The 14-3-3σ isoform with a truncated C-terminus after T321; His6 (cleaved yes); made in house; host or cells: BL21(DE3) Escherichia coli
T2 sequence (P31947 1-231 limits assumed): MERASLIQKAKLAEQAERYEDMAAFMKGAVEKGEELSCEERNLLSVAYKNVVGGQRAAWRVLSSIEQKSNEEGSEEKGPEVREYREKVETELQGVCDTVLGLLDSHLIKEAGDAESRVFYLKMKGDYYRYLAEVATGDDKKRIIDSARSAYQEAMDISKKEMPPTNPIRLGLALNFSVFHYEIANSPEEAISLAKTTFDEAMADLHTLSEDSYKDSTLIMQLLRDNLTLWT

[3] = FITC-labeled peptide (10 or 50 nM), 14-3-3γ dilution from 100 μM, FA buffer pH 7.4, ambient temperature, ± 95% confidence interval, read-out: KD

## YPYDVPAYAα-CONH2
anti-HA mAb clone 12ca5
  effect of mutation on affinity towards 12ca5: completed abrogated affinity

## NCCCC[C@H](NC(=O)[C@H](Cc1ccc([N+](=O)[O-])cc1)NC(=O)C[C@H](CO)NC(=O)C[C@H](CO)NC(=O)[C@H](Cc1ccc([N+](=O)[O-])cc1)NC(=O)[C@H](COP(=O)(O)O)NC(=O)[C@H](CCCN)NC(=O)C[C@H](CO)NC(=O)[C@H](CC1CCCCC1)NC(=O)[C@@H](N)CC1CCCCC1)C(N)=O [14-3-3.6] (H-[Cha][Cha][β3hS][Orn][pS][Phe(4-NO2)][β3hS][β3hS][Phe(4-NO2)]K-NH2; N-terminus and C-terminus assumed)
14-3-3γ [1]; [3]
  Kd: 0.0031 ± 0.0003 µM
14-3-3γ [2]; unlabeled peptide from 10 μM, 10 nM FITC-labeled biExoS, 20 nM 14-3-3γ, FA buffer pH 7.4, ambient temperature, read-out: IC50
  IC50: 0.077 ± 0.008 µM

## YPYDVPDAAα-CONH2
anti-HA mAb clone 12ca5
  effect of mutation on affinity towards 12ca5: completed abrogated affinity

## CC(C)[C@H](NC(=O)[C@H](CC(=O)O)NC(=O)[C@H](Cc1ccc(O)cc1)NC(=O)[C@@H]1CCCN1C(=O)[C@@H](N)Cc1ccc(O)cc1)C(=O)N1CCC[C@H]1C(=O)N[C@@H](CC(=O)O)C(=O)N[C@@H](Cc1ccc(O)cc1)C(=O)NCC(N)=O [YPYDVPDYG] (H-YPYDVPDYG-NH2; N-terminus assumed)
anti-HA mAb clone 12ca5
  effect of mutation on affinity towards 12ca5: deleterious but did not completely abolish binding
  IC50: 3.6 ± 1 µM
  Kd: 0.17 ± 0.07 µM

## YPYAVPDYAα-CONH2
anti-HA mAb clone 12ca5
  effect of mutation on affinity towards 12ca5: deleterious but did not completely abolish binding

## CC(C)C[C@@H](N)C(=O)N[C@@H](Cc1ccc([N+](=O)[O-])cc1)C(=O)N[C@@H](CO)CC(=O)N[C@@H](Cc1ccc([N+](=O)[O-])cc1)C(=O)N[C@@H](COP(=O)(O)O)C(=O)N[C@@H](Cc1ccc([N+](=O)[O-])cc1)C(=O)N[C@@H](CO)CC(=O)NCCC(=O)N[C@@H](Cc1ccc([N+](=O)[O-])cc1)C(=O)N[C@@H](CCCCN)C(N)=O [14-3-3.1] (H-[dL][Phe(4-NO2)][β3hS][Phe(4-NO2)][pS][Phe(4-NO2)][β3hS][βAla][Phe(4-NO2)]K-NH2)
14-3-3γ [1]; KD, FITC-labeled peptide (10 or 50 nM), 14-3-3γ dilution from 100 μM, FA buffer pH 7.4, ambient temperature, ± 95% confidence interval
  Kd: 0.0057 ± 0.001 µM
14-3-3γ [2]
  IC50: 0.465 ± 0.045 µM

## C[C@@H](O)[C@@H](CC(=O)N[C@@H](CCCCN)C(N)=O)NC(=O)[C@H](Cc1ccc([N+](=O)[O-])cc1)NC(=O)[C@H](Cc1cscn1)NC(=O)[C@H](CCCC(=O)O)NC(=O)[C@H](COP(=O)(O)O)NC(=O)[C@H](Cc1cscn1)NC(=O)[C@@H](CCC(N)=O)NC(=O)C[C@H](CO)NC(=O)[C@H](N)CCCCN [NB.1] (H-[dK][β3hS][dQ][Ala(4-thiazolyl)][pS][Aad][Ala(4-thiazolyl)][Phe(4-NO2)][β3hT]K-NH2; N-terminus and C-terminus assumed)
14-3-3γ [1]; [3]
  Kd: 64 ± 20 µM
14-3-3γ [1]; fluorescence anisotropy, FITC-labeled peptides
  fold weaker binding than the 14-3-3γ-binding peptides: ~ 10,000 fold
14-3-3γ [2]; unlabeled peptide, 10 nM FITC-labeled biExoS, 20 nM 14-3-3γ
  inhibitory activity (competition with BiExoS): no inhibitory activity

## CCC[C@H](NC(=O)[C@H](N)CCCCN)C(=O)N[C@@H](Cc1ccc([N+](=O)[O-])cc1)C(=O)N[C@@H](Cc1cscn1)C(=O)N[C@@H](COP(=O)(O)O)C(=O)N[C@@H](Cc1ccc([N+](=O)[O-])cc1)C(=O)N[C@@H](CO)CC(=O)NCCC(=O)N[C@@H](Cc1ccc([N+](=O)[O-])cc1)C(=O)N[C@@H](CCCCN)C(=O)NCCC(=O)N[C@@H](CCCCNC(=S)Nc1ccc2c(c1)C(=O)OC21c2ccc(O)cc2Oc2cc(O)ccc21)C(N)=O [FITC-labeled 14-3-3.12] (H-[dK][Nva][Phe(4-NO2)][Ala(4-thiazolyl)][pS][Phe(4-NO2)][β3hS][βAla][Phe(4-NO2)]K[βAla]K(FITC)-NH2)
14-3-3σΔc; 0 h after incubation
  Kd: 0.229 µM
14-3-3σΔc; 4 h after incubation
  Kd: 0.169 µM
14-3-3σΔc; 20 h after incubation
  Kd: 0.102 µM
14-3-3γ [1]; Kd, 14-3-3γ, 0 h after incubation
  Kd: 0.0195 µM
14-3-3γ [1]; Kd, 14-3-3γ, 4 h after incubation
  Kd: 0.0194 µM
14-3-3γ [1]; Kd, 14-3-3γ, 20 h after incubation
  Kd: 0.0219 µM

## NC(=O)[C@@H](Cc1c[nH]cn1)NC(=O)[C@H]1CCCN1C(=O)[C@@H](CCC(=O)O)NC(=O)[C@@H](CC(=O)O)NC(=O)[C@@H](Cc1ccccc1)NC(=O)[C@@H](CCC(=O)O)NC(=O)[C@@H](Cc1ccc(O)cc1)NC(=O)[C@H]1CCCN1C(=O)[C@H](N)Cc1ccc(O)cc1 [ypyefdeph, reference compound] (H-[dY][dP][dY][dE][dF][dD][dE][dP][dH]-NH2)
anti-HA mAb clone 12ca5
  IC50: 380 ± 25 µM
  Kd: 18 ± 4 µM
